Legend:
S1P1 [1] = target: T1, S1P1 (Homo sapiens, UniProt P21453); test: S1P receptor agonism on S1P1; assay type: biochemical
Source text: (§1) KRP203 (mocravimod) is an immunomodulator that selectively targets sphingosine 1-phosphate (S1P) receptors via its phosphorylated active metabolite. […] The therapeutic effects are believed to be due to the prevention of effector lymphocyte recirculation from lymphatic tissue to susceptible target organs such as the gut, skin or CNS.

S1P4 = S1P4 (Homo sapiens, UniProt O95977); test: S1P receptor agonism on S1P4; assay type: biochemical
Source text: as §1

hS1P3 = hS1P3 (Homo sapiens, UniProt Q99500); test: S1P receptor agonism on S1P3; assay type: biochemical
Source text: as §1

S1P5 = S1P5 (Homo sapiens, UniProt Q9H228); test: S1P receptor agonism on S1P5; assay type: biochemical
Source text: as §1

S1P1 [2] = target: T1, S1P1; test: S1P1 internalization; assay type: cell-based
Source text: KRP203 reduces lymphocyte counts in peripheral blood by more than 80%.

[3] = system: GPCRs, ion channels, transporters, nuclear receptors and enzymes; test: Off-target binding assays; settings: compared to estimated free plasma concentration at 3 mg/day
Source text: Thus it is unlikely that secondary pharmacology effects should arise due to non-specific receptor activation at therapeutic doses.

hERG channels = hERG channels (Homo sapiens, UniProt Q12809); test: hERG channel inhibition in vitro; assay type: biochemical; settings: up to the highest concentration tested, 3 μM
Source text: (§2) Based on the available in vitro and in vivo data, except for the potential to cause a negative chronotropic effect and some mild increase in blood pressure, there is no indication that KRP203 would cause arrhythmia or QT prolongation in man.

[4] = system: guinea pig papillary muscle preparation; test: APD in guinea pig papillary muscle preparation; settings: concentrations of 3 μM
Source text: as §2

[5] = In vitro metabolite profile in human hepatocytes; assay type: in vitro ADME
[6] = In vivo plasma ratio of phosphorylated KRP203 to KRP203 in rat
Procedure: (§3) The in vivo ratio of phosphorylated KRP203 to KRP203 in plasma was up to 45 in rat. As the metabolic activities on KRP203 in human blood and hepatocytes were lower than those of other species, the metabolic clearance of KRP203 in man is expected be lower than that in rat and dog. […] KRP230 formed low amounts of covalent drug-protein adducts in human hepatocytes in vitro. Due to the low levels detected ([…] at 3 hours) in-vitro adduct formation is unlikely to be associated with clinical relevant findings at low dose levels (e.g. below 10 mg).

[7] = system: human cytochrome P450 isoenzymes; test: Inhibition of cytochrome P450 isoenzymes in vitro; assay type: in vitro ADME
Procedure: as §3
The weak inhibitory effect of ciclosporin on hepatic CYP3A4 is unlikely to relevantly impact the PK of KRP203.

[8] = target: CYP3A4 via the human PXR receptor (Homo sapiens, UniProt O75469); test: CYP3A4 induction via PXR; assay type: in vitro ADME
bacterial mutation = test: In vitro genotoxicity: bacterial mutation; assay type: cell-based
chromosome aberration = test: In vitro genotoxicity: chromosome aberration; assay type: cell-based
[9] = Plasma toxicokinetics in dog
[10] = Plasma toxicokinetics in rat
[11] = Pharmacokinetics of [14C]KRP203 radioactivity in rats; assay type: in vivo, rat
Source text: Following intravenous administration of [14C]KRP203, radioactivity was readily distributed to rat and dog tissues with similar volume of distribution (Vss=8.0 L/kg in rat).

[12] = Pharmacokinetics of [14C]KRP203 radioactivity in dogs; assay type: in vivo, dog; settings: oral administration
Plasma protein binding = assay type: in vitro ADME; settings: human plasma
[13] = Tissue distribution of [14C]KRP203 radioactivity in Wistar rats; assay type: in vivo, rat
Source text: Highly exposed tissues were liver and to a smaller extent kidney, small intestine, adrenal gland, lungs, spleen and mesenteric lymph nodes.

[14] = system: peripheral lymphocyte counts; test: Recovery of absolute lymphocyte counts after S1P modulator dosing in healthy volunteers; assay type: in vivo, human; settings: single 1 mg FTY720, BAF312 multiple doses for 28 days, single 3 mg KRP203
Procedure: Mocravimod is particularly preferred. […] A measurable parameter that determines maintenance of the mode of action, i.e., sequestering of lymphocytes in secondary lymphoid organs and bone marrow, is reduction of peripheral lymphocyte counts. Recovery of absolute lymphocyte counts to 80% of normal counts after a single 1 mg dose of FTY720, multiple dose applications of BAF312 for 28 days, or a single 3 mg dose of KRP203 was reached after 8, 7 and more than 10 days, respectively.

[15] = system: acute GVHD after allogeneic HSCT; settings: preclinical; cited from earlier work
S1PR1 versus S1PR3-5 = settings: cited from earlier work

T1 sequence (P21453 whole entry): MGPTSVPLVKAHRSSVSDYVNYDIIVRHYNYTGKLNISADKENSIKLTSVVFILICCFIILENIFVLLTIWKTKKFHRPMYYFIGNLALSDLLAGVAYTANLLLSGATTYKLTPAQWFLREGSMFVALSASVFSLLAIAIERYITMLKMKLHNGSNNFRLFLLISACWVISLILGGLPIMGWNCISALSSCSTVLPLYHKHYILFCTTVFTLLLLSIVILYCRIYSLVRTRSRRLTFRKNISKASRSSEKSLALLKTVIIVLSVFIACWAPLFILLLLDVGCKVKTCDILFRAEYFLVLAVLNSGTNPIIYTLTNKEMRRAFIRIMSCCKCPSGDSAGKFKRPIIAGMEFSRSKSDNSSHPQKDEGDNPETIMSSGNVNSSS
Chain of CYP3A4 via the human PXR receptor (O75469 whole entry): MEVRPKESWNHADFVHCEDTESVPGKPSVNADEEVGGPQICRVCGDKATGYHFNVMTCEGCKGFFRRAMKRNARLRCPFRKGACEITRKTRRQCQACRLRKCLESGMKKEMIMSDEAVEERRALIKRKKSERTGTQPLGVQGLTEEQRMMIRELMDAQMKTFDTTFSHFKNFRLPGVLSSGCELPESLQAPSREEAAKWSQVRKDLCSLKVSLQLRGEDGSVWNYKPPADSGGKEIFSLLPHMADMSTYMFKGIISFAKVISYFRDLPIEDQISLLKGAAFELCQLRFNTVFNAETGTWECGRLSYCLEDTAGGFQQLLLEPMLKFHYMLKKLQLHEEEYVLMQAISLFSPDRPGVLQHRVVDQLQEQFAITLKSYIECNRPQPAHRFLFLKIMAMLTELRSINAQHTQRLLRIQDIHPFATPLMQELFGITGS
Chain of hS1P3 (Q99500 whole entry): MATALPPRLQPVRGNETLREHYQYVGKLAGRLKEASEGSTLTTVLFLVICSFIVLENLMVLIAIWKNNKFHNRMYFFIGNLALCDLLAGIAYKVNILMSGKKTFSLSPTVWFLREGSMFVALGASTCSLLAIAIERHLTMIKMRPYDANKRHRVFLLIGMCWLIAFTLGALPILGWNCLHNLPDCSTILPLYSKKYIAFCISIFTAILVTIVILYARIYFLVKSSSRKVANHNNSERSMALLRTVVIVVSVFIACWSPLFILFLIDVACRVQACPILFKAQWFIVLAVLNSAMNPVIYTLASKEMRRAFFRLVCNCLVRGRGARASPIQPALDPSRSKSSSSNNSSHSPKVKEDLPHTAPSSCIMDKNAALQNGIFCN
Chain of hERG channels (Q12809 whole entry): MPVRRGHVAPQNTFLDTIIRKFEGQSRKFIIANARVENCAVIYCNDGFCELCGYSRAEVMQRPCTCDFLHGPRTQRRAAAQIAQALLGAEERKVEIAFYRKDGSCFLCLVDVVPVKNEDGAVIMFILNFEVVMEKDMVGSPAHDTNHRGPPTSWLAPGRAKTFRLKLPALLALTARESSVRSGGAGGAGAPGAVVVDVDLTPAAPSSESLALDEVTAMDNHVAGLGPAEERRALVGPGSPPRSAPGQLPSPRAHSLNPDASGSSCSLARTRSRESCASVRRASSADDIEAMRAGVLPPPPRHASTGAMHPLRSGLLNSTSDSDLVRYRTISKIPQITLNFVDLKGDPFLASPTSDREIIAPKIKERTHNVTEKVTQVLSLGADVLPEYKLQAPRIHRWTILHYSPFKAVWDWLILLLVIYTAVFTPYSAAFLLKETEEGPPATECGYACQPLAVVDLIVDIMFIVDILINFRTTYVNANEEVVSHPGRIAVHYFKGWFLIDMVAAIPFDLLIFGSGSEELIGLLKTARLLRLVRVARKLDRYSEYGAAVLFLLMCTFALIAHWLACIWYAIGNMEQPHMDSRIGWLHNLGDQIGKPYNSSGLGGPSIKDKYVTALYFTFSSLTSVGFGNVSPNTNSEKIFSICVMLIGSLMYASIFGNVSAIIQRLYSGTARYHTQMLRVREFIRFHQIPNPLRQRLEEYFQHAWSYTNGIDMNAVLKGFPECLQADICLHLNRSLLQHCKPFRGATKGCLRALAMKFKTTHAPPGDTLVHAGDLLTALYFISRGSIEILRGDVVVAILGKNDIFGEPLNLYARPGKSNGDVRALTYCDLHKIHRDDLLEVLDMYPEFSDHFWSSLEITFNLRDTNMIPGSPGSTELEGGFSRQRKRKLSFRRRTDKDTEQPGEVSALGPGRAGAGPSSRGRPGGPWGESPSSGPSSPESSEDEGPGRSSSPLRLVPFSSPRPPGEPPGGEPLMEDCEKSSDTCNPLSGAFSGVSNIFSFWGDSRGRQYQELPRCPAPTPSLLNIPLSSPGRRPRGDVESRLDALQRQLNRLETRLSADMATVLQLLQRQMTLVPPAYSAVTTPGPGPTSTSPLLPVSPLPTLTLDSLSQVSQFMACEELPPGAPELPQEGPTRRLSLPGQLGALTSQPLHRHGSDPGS
Chain of S1P4 (O95977 whole entry): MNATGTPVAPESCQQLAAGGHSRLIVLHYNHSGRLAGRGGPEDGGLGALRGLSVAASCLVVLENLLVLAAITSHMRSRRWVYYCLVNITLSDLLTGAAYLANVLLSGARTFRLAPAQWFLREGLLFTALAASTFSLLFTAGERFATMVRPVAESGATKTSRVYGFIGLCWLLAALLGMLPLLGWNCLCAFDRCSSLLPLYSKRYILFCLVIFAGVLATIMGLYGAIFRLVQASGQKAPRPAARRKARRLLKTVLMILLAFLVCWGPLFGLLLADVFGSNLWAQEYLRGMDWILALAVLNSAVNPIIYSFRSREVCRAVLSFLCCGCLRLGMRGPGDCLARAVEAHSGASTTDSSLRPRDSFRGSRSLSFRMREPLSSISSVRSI
Chain of S1P5 (Q9H228 whole entry): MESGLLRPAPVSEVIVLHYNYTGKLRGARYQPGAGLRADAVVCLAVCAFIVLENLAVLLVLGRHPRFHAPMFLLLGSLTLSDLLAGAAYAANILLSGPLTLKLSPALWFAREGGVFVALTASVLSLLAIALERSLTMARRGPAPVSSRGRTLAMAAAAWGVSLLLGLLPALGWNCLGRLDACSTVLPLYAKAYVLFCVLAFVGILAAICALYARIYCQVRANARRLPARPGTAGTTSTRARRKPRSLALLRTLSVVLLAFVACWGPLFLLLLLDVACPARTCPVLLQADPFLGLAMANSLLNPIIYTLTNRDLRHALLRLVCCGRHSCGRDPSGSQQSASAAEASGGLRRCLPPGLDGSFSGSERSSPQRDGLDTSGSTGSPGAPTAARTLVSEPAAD

Q: For KRP203-phosphate, which agonist activity (S1P1 [1]) is on record?
A: potent agonist

Q: What about the agonist activity (S1P4) of the same compound?
A: potent agonist

Q: What about the agonist activity (hS1P3) of the same compound?
A: potent but partial agonist

Q: What about the agonist activity (S1P5) of the same compound?
A: potent but partial agonist

Q: What about the “internalization of the S1P1” value (S1P1 [2]) of the same compound?
A: long-lasting and complete internalization

Q: And the “safety margins in off-target binding assays” value [3]?
A: large safety margins

Q: And the “effects on hERG channels” value (hERG channels)?
A: did not show significant effects

Q: What about the APD prolongation [4] of the same compound?
A: No APD prolongation

Q: What about the “metabolite abundance in human hepatocytes” value [5] of the same compound?
A: among the more prominent metabolites

Q: And the “in vivo ratio of phosphorylated KRP203 to KRP203 in plasma” value [6]?
A: up to 45

Q: What about the “effect on cytochromes P450 enzymes and transporters” value [7] of the same compound?
A: lack of effect

Q: And the “no significant induction of CYP3A4 via the human PXR receptor up to concentration” value [8]?
A: ≤ 50 µM

Q: What about the genotoxic potential (bacterial mutation) of the same compound?
A: no evidence for a genotoxic potential

Q: What about the genotoxic potential (chromosome aberration) of the same compound?
A: no evidence for a genotoxic potential

Q: And the “KRP203-phosphate/KRP203 ratio (based on AUC0-24 h)” value [9]?
A: 1.4-6.6

Q: What about the “accumulation after repeated dosing (4 and 13 weeks)” value [9] of the same compound?
A: no evidence of accumulation

Q: And the “proportionality between exposure and dose” value ([9]; single and multiple doses (4 and 13 weeks))?
A: trend for an under proportionality at all dose levels

Q: And the “KRP203-phosphate/KRP203 ratio (based on AUC0-24 h)” value [10]?
A: 10.9-19.1

Q: What about the “proportionality between exposure and dose” value ([10]; single and multiple administrations) of the same compound?
A: apparent proportionality between exposure and dose

Q: Which “volume of distribution Vss” value ([11]; intravenous administration, rat) does the source give for `NC(CO)(CO)CCc1ccc(Sc2cccc(OCc3ccccc3)c2)cc1Cl` [[14C]KRP203] here?
A: 8.0 L/kg

Q: And the “radioactivity Tmax” value ([11]; oral administration, male rats)?
A: 7 h

Q: What about the “radioactivity Tmax” value [12] of the same compound?
A: 9.3 h

Q: And the fraction unbound (Plasma protein binding)?
A: < 0.01

Q: And the “total radioactivity in brain relative to plasma” value ([13]; 14-day multiple oral dose 0.5 mg/kg/day)?
A: accumulated more in brain relative to plasma and eliminated much slower

Q: And the “radioactivity in CNS tissues (cerebrum, cerebellum and medulla oblongata) versus plasma” value ([13]; until 24 h post-dose after single administration)?
A: lower than in plasma

Q: For `CCCCCCCCc1ccc(CCC(N)(CO)CO)cc1` [FTY720], which “Recovery of absolute lymphocyte counts to 80% of normal counts” value [14] is on record?
A: 8 days

Q: And the “effect on acute GVHD” value [15]?
A: ameliorate acute GVHD

Q: What about the S1P receptor selectivity (S1PR1 versus S1PR3-5) of the same compound?
A: poor selectivity for S1PR1 versus S1PR3-5

Q: For `CCc1cc(/C(C)=N/OCc2ccc(C3CCCCC3)c(C(F)(F)F)c2)ccc1CN1CC(C(=O)O)C1` [BAF312], which “Recovery of absolute lymphocyte counts to 80% of normal counts” value [14] is on record?
A: 7 days
